Test results taken from PubChem BioAssay AID256 (DTP/NCI, 2004).
Several values for one entry are separate records, joined by “and”; a condition that tells them apart may be missing. Equal entries are not always repeated. Toxic doses and inconclusive results are not listed. Rule for the calls: active = survival T/C of 150% or more; inactive = T/C below 125% in these data.

Test system: CD2F1 mice, L1210 leukemia ip, survival T/C
Experiment: NCI In Vivo Anticancer Drug Screen. Data for tumor model L1210 Leukemia (intraperitoneal) in CD2F1 (CDF1) mice
Conditions: higher = longer survival
Outline: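 Mice carrying a transplanted tumor received test compound or vehicle alone. The value is the measurement in the treated group divided by that in the vehicle-treated control group.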

[1] = endpoint: mean survival time, dose: 100.0 mg/kg/injection, schedule: Q01DX009 (ip), vehicle: saline
[2] = endpoint: mean survival time, dose: 100.0 mg/kg/injection, schedule: Q04DX003 (ip), vehicle: saline with Tween-80
[3] = endpoint: mean survival time, dose: 200.0 mg/kg/injection, schedule: Q01DX009 (ip), vehicle: saline
[4] = endpoint: mean survival time, dose: 200.0 mg/kg/injection, schedule: Q04DX003 (ip), vehicle: saline with Tween-80
[5] = endpoint: mean survival time, dose: 400.0 mg/kg/injection, schedule: Q01DX009 (ip), vehicle: saline
[6] = endpoint: mean survival time, dose: 400.0 mg/kg/injection, schedule: Q04DX003 (ip), vehicle: saline with Tween-80
[7] = endpoint: mean survival time, dose: 100.0 mg/kg/injection, schedule: Q04DX003 (ip), vehicle: other
[8] = endpoint: mean survival time, dose: 200.0 mg/kg/injection, schedule: Q04DX003 (ip), vehicle: other
[9] = endpoint: mean survival time, dose: 400.0 mg/kg/injection, schedule: Q04DX003 (ip), vehicle: other
[10] = endpoint: mean survival time, dose: 100.0 mg/kg/injection, schedule: Q01DX009 (ip), vehicle: saline with Tween-80
[11] = endpoint: mean survival time, dose: 200.0 mg/kg/injection, schedule: Q01DX009 (ip), vehicle: saline with Tween-80
[12] = endpoint: mean survival time, dose: 25.0 mg/kg/injection, schedule: Q01DX009 (ip), vehicle: saline
[13] = endpoint: mean survival time, dose: 50.0 mg/kg/injection, schedule: Q01DX009 (ip), vehicle: saline

Measured: T/C

CCOC(=O)C(Br)C(Br)c1cccc([N+](=O)[O-])c1 (stereo not drawn)
inactive: endpoint: mean survival time, dose: 25.0 mg/kg/injection, schedule: Q01DX009 (ip), vehicle: other 98 % of control | endpoint: mean survival time, dose: 50.0 mg/kg/injection, schedule: Q01DX009 (ip), vehicle: other 98 % of control | endpoint: mean survival time, dose: 100.0 mg/kg/injection, schedule: Q01DX009 (ip), vehicle: other 101 % of control

CCOC(=S)SCCCC(C)CC (stereo not drawn)
inactive: endpoint: mean survival time, dose: 100.0 mg/kg/injection, schedule: Q01DX001 (ip), vehicle: saline 100 % of control | endpoint: mean survival time, dose: 200.0 mg/kg/injection, schedule: Q01DX001 (ip), vehicle: saline 102 % of control | endpoint: mean survival time, dose: 400.0 mg/kg/injection, schedule: Q01DX001 (ip), vehicle: saline 102 % of control

COC(=O)c1nccnc1N
inactive: endpoint: mean survival time, dose: 100.0 mg/kg/injection, schedule: Q04DX002 (ip), vehicle: saline 96 % of control | endpoint: mean survival time, dose: 200.0 mg/kg/injection, schedule: Q04DX002 (ip), vehicle: saline 105 % of control | endpoint: mean survival time, dose: 400.0 mg/kg/injection, schedule: Q04DX002 (ip), vehicle: saline 113 % of control

CCOC(CCC#N)c1ccc(Cl)cc1 (stereo not drawn)
inactive: [1] 98 % of control | [2] 92 % of control | [3] 101 % of control | [4] 100 % of control | [5] 98 % of control | [6] 102 % of control

O=[N+]([O-])c1c(O)c(CNCCCO)cc(CNCCCO)c1O
inactive: endpoint: median survival time, dose: 6.25 mg/kg/injection, schedule: Q01DX009 (ip), vehicle: saline 100 % of control | endpoint: median survival time, dose: 12.5 mg/kg/injection, schedule: Q01DX009 (ip), vehicle: saline 97 % of control | endpoint: median survival time, dose: 25.0 mg/kg/injection, schedule: Q01DX009 (ip), vehicle: saline 88 % of control | endpoint: median survival time, dose: 50.0 mg/kg/injection, schedule: Q01DX009 (ip), vehicle: saline 92 % of control

C1CC[N-]CC1.C1CC[N-]CC1.[Cl][Pt+2]([Cl])([Cl])[Cl]
inactive: [2] 97 % of control | [4] 92 % of control | [6] 93 % of control

Cc1ncc(C=O)c(C)c1O
inactive: endpoint: mean survival time, dose: 75.0 mg/kg/injection, schedule: Q01DX001 (ip), vehicle: other 101 % of control

COC(=O)CCCc1c[nH]c2ccccc12
inactive: [7] 101 % of control | [8] 115 % of control | [9] 94 % of control

COc1ccc(NC(=O)Oc2ccccc2-c2ccccc2)cc1
inactive: [10] 98 % of control | [11] 89 % of control | endpoint: mean survival time, dose: 400.0 mg/kg/injection, schedule: Q01DX009 (ip), vehicle: saline with Tween-80 89 % of control

O=C(OCC#CC#CCOC(=O)c1cccc2ccccc12)c1cccc2ccccc12
inactive: endpoint: mean survival time, dose: 100.0 mg/kg/injection, schedule: Q04DX003 (ip), vehicle: Klucel (hydroxypropylcellulose) (HPC) 100 % of control | endpoint: mean survival time, dose: 200.0 mg/kg/injection, schedule: Q04DX003 (ip), vehicle: Klucel (hydroxypropylcellulose) (HPC) 102 % of control | endpoint: mean survival time, dose: 400.0 mg/kg/injection, schedule: Q04DX003 (ip), vehicle: Klucel (hydroxypropylcellulose) (HPC) 96 % of control

CNC(=O)Nc1nc2ccc([N+](=O)[O-])cc2[nH]1
inactive: [2] 109 % of control | [4] 105 % of control | [6] 105 % of control

ClP1(c2ccccc2)=NP(Cl)(c2ccccc2)=NP(Cl)(c2ccccc2)=NP(Cl)(c2ccccc2)=N1 (stereo not drawn)
inactive: [2] 96 % of control | [4] 94 % of control

CCCCNC(C)C1(O)Cc2c(O)c3c(c(O)c2C(OC2CC(N)C(O)C(C)O2)C1)C(=O)c1c(OC)cccc1C3=O (stereo not drawn)
inactive: endpoint: mean survival time, dose: 10.0 mg/kg/injection, schedule: Q01DX009 (ip), vehicle: water 121 % of control | endpoint: mean survival time, dose: 160.0 mg/kg/injection, schedule: Q01DX009 (ip), vehicle: water 119 % of control

C=C(C)C12OC3(CCCCCCCCC)OC1C1C4OC4(COC(=O)CCCCCCCCCCCCCCC)C(O)C4(O)C(=O)C(C)=CC4C1(O3)C(C)C2OC(=O)c1ccccc1 (stereo not drawn)
inactive: endpoint: mean survival time, dose: 5.0 micrograms/kg/injection, schedule: Q01DX009 (ip), vehicle: saline + alcohol 97 % of control | endpoint: mean survival time, dose: 10.0 micrograms/kg/injection, schedule: Q01DX009 (ip), vehicle: saline + alcohol 117 % of control | endpoint: mean survival time, dose: 20.0 micrograms/kg/injection, schedule: Q01DX009 (ip), vehicle: saline + alcohol 105 % of control | endpoint: mean survival time, dose: 40.0 micrograms/kg/injection, schedule: Q01DX009 (ip), vehicle: saline + alcohol 112 % of control

N#CC(/C=C/c1ccccc1)Nc1ccccc1CO (stereo not drawn)
inactive: [2] 97 % of control | [4] 105 % of control | [6] 117 % of control

N[C@@H](Cc1ccc(O)c(O)c1)C(=O)O
inactive: [12] 98 % of control | [13] 97 % of control | [1] 96 % of control | endpoint: mean survival time, dose: 100.0 mg/kg/injection, schedule: Q04DX002 (ip), vehicle: saline with Tween-80 103 % of control | [3] 103 % of control | endpoint: mean survival time, dose: 200.0 mg/kg/injection, schedule: Q04DX002 (ip), vehicle: saline with Tween-80 95 % of control | [5] 108 % of control | endpoint: mean survival time, dose: 400.0 mg/kg/injection, schedule: Q04DX002 (ip), vehicle: saline with Tween-80 98 % of control | endpoint: mean survival time, dose: 800.0 mg/kg/injection, schedule: Q01DX009 (ip), vehicle: saline 119 % of control

COC(=O)c1ccccc1NC(=O)/C=C/C(=O)O
inactive: [13] 94 % of control | [1] 88 % of control | [2] 98 % of control | [3] 90 % of control | [4] 95 % of control

[Co].[N-]=C=S.[N-]=C=S.[N-]=C=S.[NH2-].[NH2-].[NH2-]
inactive: endpoint: mean survival time, dose: 50.0 mg/kg/injection, schedule: Q01DX001 (ip), vehicle: saline with Tween-80 98 % of control and 101 % of control

Nc1cccc2cn[nH]c12
inactive: [7] 98 % of control | [8] 96 % of control | [9] 101 % of control

CC(C)C(C=O)C(O)(C(F)(F)F)C(F)(F)Cl (stereo not drawn)
inactive: [2] 91 % of control

CC12CCC(OC3CCCCO3)CC1=CCC1C2CCC2(C)C1CCC21CCNP(=O)(N(CCCl)CCCl)O1 (stereo not drawn)
inactive: endpoint: mean survival time, dose: 12.5 mg/kg/injection, schedule: Q01DX005 (ip), vehicle: other 100 % of control | endpoint: mean survival time, dose: 25.0 mg/kg/injection, schedule: Q01DX005 (ip), vehicle: other 91 % of control | endpoint: mean survival time, dose: 50.0 mg/kg/injection, schedule: Q01DX005 (ip), vehicle: other 95 % of control | endpoint: mean survival time, dose: 100.0 mg/kg/injection, schedule: Q01DX005 (ip), vehicle: other 95 % of control | endpoint: mean survival time, dose: 125.0 mg/kg/injection, schedule: Q01DX001 (ip), vehicle: Klucel (hydroxypropylcellulose) (HPC) 95 % of control | endpoint: mean survival time, dose: 250.0 mg/kg/injection, schedule: Q01DX001 (ip), vehicle: Klucel (hydroxypropylcellulose) (HPC) 96 % of control | endpoint: mean survival time, dose: 500.0 mg/kg/injection, schedule: Q01DX001 (ip), vehicle: Klucel (hydroxypropylcellulose) (HPC) 101 % of control | endpoint: mean survival time, dose: 1000.0 mg/kg/injection, schedule: Q01DX001 (ip), vehicle: Klucel (hydroxypropylcellulose) (HPC) 98 % of control

CC(C)c1ccc2c(c1)CC[C@H]1[C@](C)(C#N)CCC[C@]21C
inactive: [10] 95 % of control | [11] 94 % of control

CCC(N)Cc1ccc2c(c1)OCO2 (stereo not drawn)
inactive: [12] 98 % of control | [13] 93 % of control | [1] 96 % of control | [2] 95 % of control

Oc1ccccc1/C=N/c1nc(-c2ccccc2)cs1
inactive: endpoint: mean survival time, dose: 100.0 mg/kg/injection, schedule: Q01DX001 (ip), vehicle: saline with Tween-80 86 % of control | endpoint: mean survival time, dose: 200.0 mg/kg/injection, schedule: Q01DX001 (ip), vehicle: saline with Tween-80 107 % of control | endpoint: mean survival time, dose: 400.0 mg/kg/injection, schedule: Q01DX001 (ip), vehicle: saline with Tween-80 93 % of control

C=CC(C)n1c(=O)c2c(ncn2C)n(C)c1=O (stereo not drawn)
inactive: endpoint: mean survival time, dose: 0.78 mg/kg/injection, schedule: Q04DX003 (ip), vehicle: saline with Tween-80 102 % of control | endpoint: mean survival time, dose: 1.56 mg/kg/injection, schedule: Q04DX003 (ip), vehicle: saline with Tween-80 102 % of control | endpoint: mean survival time, dose: 3.12 mg/kg/injection, schedule: Q04DX003 (ip), vehicle: saline with Tween-80 105 % of control

CC[N+](CC)=C1SCCCS1
inactive: endpoint: mean survival time, dose: 6.25 mg/kg/injection, schedule: Q04DX003 (ip), vehicle: saline 100 % of control | endpoint: mean survival time, dose: 12.5 mg/kg/injection, schedule: Q04DX003 (ip), vehicle: saline 100 % of control | endpoint: mean survival time, dose: 25.0 mg/kg/injection, schedule: Q04DX003 (ip), vehicle: saline 100 % of control
